Laboratory results: patent publication US12624012B2, “14-chloro-β-elemene nitric oxide donor derivative and preparation method and use thereof” (HANGZHOU NORMAL UNIVERSITY, priority 2021, dated 2026)

Assays:
[1] = In vitro NO release test (incubation with L-cysteine, OD at 550 nm); settings: 100 μM solution with cysteine solution, 37° C.
Protocol: • (1) Sodium nitrite solutions with different concentrations were prepared. A calibration curve was drawn. • (2) The sample was treated. A 100 μM solution was prepared. 2.5 mL of the prepared compound solution and 2.5 mL of the cysteine solution were taken and incubated at 37° C. for 120 min, and the resulting mixture was sampled at different time points. • (3) A blank hole and a standard hole were set. 160 μL of the sample was collected and mixed evenly with 0.08 mL of a developer and stood at 37° C. for 15 min. At λ=550 nm, the OD value of absorbance was measured by the enzyme marker. The NO release levels were obtained by substituting the value into the standard curve.

SW620 = assay: In vitro anti-tumor activity evaluation test (CCK-8), SW620; format: cell-based, human; settings: Homo sapiens, SW-620, SW620, 72 h; for inhibition at 1 µM: read-out: Inhibitory rates against tumor cell lines
Protocol: (§1) • (1) Cells were digested and counted. Cell suspensions (H520, SW620 5.0×10^4 cells/mL, and U87MG 3.5×10^4 cells/mL) were prepared. 100 μL of cell suspension was added to each well of a 96-well cell culture plate. • (2) The 96-well cell culture plate was incubated in a 37° C., 5%, CO2 incubator for 24 h. • (3) A drug was diluted with a culture medium to a desired working solution concentration. 100 μL of the corresponding drug-containing culture medium was added to each well. At the same time, a negative control group and a positive control group were set up. • (4) The 96-well cell culture plate was incubated in a 37° C., 5%, CO2 incubator for 72 h. • (5) The 96-well plate was stained with CCK-8, and at λ=450 nm, the OD value was determined. • 1) 10 μL of CCK-8 was added to each well. The culture plate continued to be incubated in the incubator for 2-3 h. • 2) The culture plate was rocked for 10 min to gently mix and remove air bubbles from the 96-well plate. • 3) At λ=450 nm, the OD value of each well was read by the enzyme marker, and the inhibitory rates were calculated. • (6) According to the following equation (1), the growth inhibitory rate of the tumor cells was obtained. The obtained results were substituted into an IC 50 calculation software SPSS17.0 to find out the IC50 value.

U87MG = assay: In vitro anti-tumor activity evaluation test (CCK-8), U87MG; format: cell-based, human; settings: Homo sapiens, U-87 MG, U87MG, 72 h; for inhibition at 1 µM: read-out: Inhibitory rates against tumor cell lines; for IC50: read-out: IC50 against different tumor cell lines
Protocol: as §1

NCI-H520 = assay: In vitro anti-tumor activity evaluation test (CCK-8), NCI-H520; format: cell-based, human; settings: Homo sapiens, NCI-H520, 72 h; for inhibition at 1 µM: read-out: Inhibitory rates against tumor cell lines; for IC50: read-out: IC50 against different tumor cell lines
Protocol: as §1

Structure (SMILES) | NO-release concentrations ([1]; 5 min) [µM] | NO-release concentrations ([1]; 10 min) [µM] | NO-release concentrations ([1]; 20 min) [µM] | NO-release concentrations ([1]; 30 min) [µM] | NO-release concentrations ([1]; 60 min) [µM] | NO-release concentrations ([1]; 90 min) [µM] | NO-release concentrations ([1]; 120 min) [µM] | inhibition at 1 µM (SW620) [%] | inhibition at 1 µM (U87MG) [%] | IC50 (U87MG) [nM] | inhibition at 1 µM (NCI-H520) [%] | IC50 (NCI-H520) [nM] | IC50 (SW620; read-out: IC50 against different tumor cell lines) [nM]
C=C[C@]1(C)CC[C@@H](C(=C)CN2CC[C@H](OC(=O)CCC(=O)OCCOc3no[n+]([O-])c3S(=O)(=O)c3ccccc3)C2)C[C@H]1C(=C)CCl [Example 9, 4-(2-((4-(((S)-1-(2-((1R,3R,4S)-3-(3-chloroprop-1-en-2-yl)-4-methyl-4-vinylcyclohexyl)allyl)pyrrolidine-3-ly)oxy)-4-oxobutanoyl)oxy)ethyoxyl)-3-(phenylsulfonyl)-1,2,5-oxadiazole 2-oxide] | 3.25 | 3.90 | 5.98 | 7.59 | 11.11 | 17.29 | 23.48 | 39.3 ± 4.2 | 51.3 ± 1.3 | 323 ± 13 | 44.5 ± 2.8 | – | –
C=C[C@]1(C)CC[C@@H](C(=C)CN2CCN(CCOC(=O)CCCC(=O)OCCOc3no[n+]([O-])c3S(=O)(=O)c3ccccc3)CC2)C[C@H]1C(=C)CCl [Example 22] | 0.33 | 0.90 | 1.35 | 1.91 | 4.05 | 7.20 | 10.51 | 42.8 ± 0.5 | 52.4 ± 2 | 372 ± 6 | 44.1 ± 2.4 | 962 ± 54 | –
C=C[C@]1(C)CC[C@@H](C(=C)CN(CCOC(=O)CCC(=O)OCCOc2no[n+]([O-])c2S(=O)(=O)c2ccccc2)C(C)C)C[C@H]1C(=C)CCl [Example 5, 4-(2-((4-(2-((2-((1R,3R,4S)-3-(3-chloroprop-1-en-2-yl)-4-methyl-4-vinylcyclohexyl)allyl)(isopropyl)amino)ethyoxyl)-4-oxobutanoyl)oxy)ethyoxyl)-3-(phenylsulfonyl)-1,2,5-oxadiazole 2-oxide] | 0.59 | 41.61 | 48.58 | 2.57 | 5.58 | 9.22 | 13.64 | 33 ± 2.5 | 47.1 ± 0.9 | 369 ± 25 | 44.2 ± 1.3 | – | –
C=C[C@]1(C)CC[C@@H](C(=C)CN2CCN(CCOC(=O)CCCC(=O)OCC#CCOc3no[n+]([O-])c3S(=O)(=O)c3ccccc3)CC2)C[C@H]1C(=C)CCl [Example 24, 4-((4-((5-(2-(4-(2-((1R,3R,4S)-3-(3-chloroprop-1-en-2-yl)-4-methyl-4-vinylcyclohexyl)allyl)piperazin-1-yl)ethyoxyl)-5-oxyglutaryl)oxy)but-2-yn-1-yl)oxy)-3-(phenylsulfonyl)-1,2,5-oxadiazole 2-oxide] | 10.64 | 11.37 | 12.38 | 13.68 | 18.24 | 25.90 | 34.64 | 43.2 ± 5.5 | 50.3 ± 1.2 | 960 ± 75 | 46.8 ± 2.1 | 1062 ± 2 | –
C=C[C@]1(C)CC[C@@H](C(=C)CN2CCCC(COC(=O)CCCC(=O)OCCOc3no[n+]([O-])c3S(=O)(=O)c3ccccc3)C2)C[C@H]1C(=C)CCl (stereo partly drawn) [Example 18, 4-(2-((5-((1-(2-((1R,3R,4S)-3-(3-chloroprop-1-en-2-yl)-4-methyl-4-vinylcyclohexyl)allyl)piperidin-3-yl)methoxyl)-5-oxopentanoyl)oxy)ethyoxyl)-3-(phenylsulfonyl)-1,2,5-oxadiazole 2-oxide] | 8.89 | 10.18 | 12.42 | 14.32 | 21.50 | 32.40 | 42.83 | 46.1 ± 0.9 | 48.3 ± 1.5 | – | 43.9 ± 1 | 1210 ± 152 | –
C=C[C@]1(C)CC[C@@H](C(=C)CN2CCC(COC(=O)CCCC(=O)OCCOc3no[n+]([O-])c3S(=O)(=O)c3ccccc3)CC2)C[C@H]1C(=C)CCl [Example 14, 4-(2-((5-((1-(2-((1R,3R,4S)-3-(3-chloroprop-1-en-2-yl)-4-methyl-4-vinylcyclohexyl)allyl)piperidin-4-yl)methoxyl)-5-oxopentanoyl)oxy)ethyoxyl)-3-(phenylsulfonyl)-1,2,5-oxadiazole 2-oxide] | 12.34 | 13.53 | 15.94 | 18.96 | 29.94 | 45.42 | 62.49 | 55.4 ± 1.5 | 54.8 ± 1.9 | 477 ± 11 | 50.1 ± 1.1 | 846 ± 27 | 814 ± 68
C=C[C@]1(C)CC[C@@H](C(=C)CN2CCC(OC(=O)CCCC(=O)OCC#CCOc3no[n+]([O-])c3S(=O)(=O)c3ccccc3)C2)C[C@H]1C(=C)CCl (stereo partly drawn) [Example 12, 4-((4-((5-(((S)-1-(2-((1R,3R,4S)-3-(3-chloroprop-1-en-2-yl)-4-methyl-4-vinylcyclohexyl)allyl)pyrrolidine-3-ly)oxy)-5-oxopentanoyl)oxy)but-2-yn-1-yl)oxy)-3-(phenylsulfonyl)-1,2,5-oxadiazole 2-oxide] | 13.20 | 16.04 | 21.29 | 26.90 | 46.58 | 74.45 | 103.92 | 31.7 ± 1.4 | 47.8 ± 1.1 | 898 ± 54 | 39.1 ± 0.7 | – | –
C=C[C@]1(C)CC[C@@H](C(=C)CN2CCCC(COC(=O)CCCC(=O)OCC#CCOc3no[n+]([O-])c3S(=O)(=O)c3ccccc3)C2)C[C@H]1C(=C)CCl (stereo partly drawn) [Example 20, 4-((4-((5-((1-(2-((1R,3R,4S)-3-(3-chloroprop-1-en-2-yl)-4-methyl-4-vinylcyclohexyl)allyl)piperidin-3-yl)methoxyl)-5-oxopentanoyl)oxy)but-2-yn-1-yl)oxy)-3-(phenylsulfonyl)-1,2,5-oxadiazole 2-oxide] | 15.19 | 17.57 | 21.33 | 25.52 | 39.29 | 58.12 | 77.28 | 43.2 ± 1.8 | 53.9 ± 0.6 | 1110 ± 52 | 44.5 ± 2.4 | 1180 ± 66 | –
C=C[C@]1(C)CC[C@@H](C(=C)CN(C)CCOC(=O)CCC(=O)OCCOc2no[n+]([O-])c2S(=O)(=O)c2ccccc2)C[C@H]1C(=C)CCl [Example 1, 4-(2-((4-(2-((2-((1R,3R,4S)-3-(3-chloroprop-1-en-2-yl)-4-methyl-4-vinylcyclohexyl))(methyl)amino)ethyoxyl)-4-oxobutanoyl)oxy)ethyoxyl)-3-(phenylsulfonyl)-1,2,5-oxadiazole 2-oxide] | 1.73 | 2.31 | 2.90 | 4.04 | 7.76 | 12.67 | 17.21 | 30.7 ± 3.5 | 39.5 ± 2.1 | – | 28.8 ± 0.8 | – | –
